Results from US11028077B2, “Crystalline pharmaceutical and methods of preparation and use thereof” (NOVARTIS PHARMACEUTICALS CORPORATION, priority 2008, dated 2021).
Read-outs that look alike come from different tables or passages of the source.

Tests used:
[1] = Single dose ocular and IV ADME study with [14C]-compound in rats, quantitative whole body autoradiography; type: in vivo, rat; details: for excretion in feces, % of the administered radioactivity: 0 to 168 hours postdose
[2] = Rat ocular pharmacokinetics of [14C]-compound (ocular tissue levels); type: in vivo; details: for Concentration, Aqueous humor: ocular dosing in rats
[3] = system: human mononuclear cells (PBMC) stimulated with staphylococcal enterotoxin B (SEB); experiment: cells; type: cell-based
[4] = 0.5 hour postdose, topical ocular 1 mg/eye
[5] = 0.5 hour postdose, topical ocular 1 mg/eye, above upper limit of quantification
[6] = 8 hours postdose, topical ocular 1 mg/eye
[7] = 24 hours postdose, topical ocular 1 mg/eye
[8] = at 2 hours postdose vs 0.5 hour

CS(=O)(=O)c1cccc(C[C@H](NC(=O)c2c(Cl)cc3c(c2Cl)CCN(C(=O)c2ccc4ccoc4c2)C3)C(=O)O)c1 [[^14C]-compound of Formula I]
radioactivity concentration, eye [1, 4]: 18100 ng equivalents [^14C]-compound of Formula I/g
radioactivity concentration, liver [1, 4]: 272 ng equivalents [^14C]-compound of Formula I/g
radioactivity concentration, uveal tract [1, 4]: 9330 ng equivalents [^14C]-compound of Formula I/g
radioactivity concentration, esophageal contents ([1]; 0.5 hour postdose, topical ocular 1 mg/eye, male Sprague Dawley rats, above upper limit of quantification): 399000 ng equivalents [^14C]-compound of Formula I/g
radioactivity concentration, nasal turbinates [1, 5]: 352000 ng equivalents [^14C]-compound of Formula I/g
radioactivity concentration, small intestinal contents [1, 5]: 349000 ng equivalents [^14C]-compound of Formula I/g
radioactivity level, eye lens ([1]; 2 hours postdose, topical ocular 1 mg/eye): BLQ
radioactivity concentration, cecum contents [1, 6]: 57600 ng equivalents [^14C]-compound of Formula I/g
radioactivity concentration, large intestinal contents [1, 6]: 133000 ng equivalents [^14C]-compound of Formula I/g
radioactivity concentration, uveal tract ([1]; 12 hours postdose, topical ocular 1 mg/eye): 610 ng equivalents [^14C]-compound of Formula I/g
radioactivity concentration, cecum contents [1, 7]: 5870 ng equivalents [^14C]-compound of Formula I/g
radioactivity concentration, large intestinal contents [1, 7]: 18000 ng equivalents [^14C]-compound of Formula I/g
excretion in feces, % of the administered radioactivity ([1]; IV administration 10 mg/kg): ~95%
decline of radioactivity concentration, esophageal contents [1, 8]: ~100 fold
decline of radioactivity concentration, esophagus [1, 8]: approximately 50 fold
excretion in feces, % of the administered radioactivity ([1]; ocular administration 1 mg/eye): approximately 60%
Urinary excretion, % of the administered radioactivity ([1]; ocular or IV administration): up to 2%
metabolites in pooled plasma, urine and fecal homogenates ([1]; rats, up to 168 hrs following topical ocular or IV dose): no metabolites were isolated
Concentration, Conjunctiva (bulbar) ([2]; 0.5 hour after administration): 31500 ng Equivalents [^14C]-compound of Formula I/g tissue
Concentration, Conjunctiva (palpebral) ([2]; 0.5 hour after administration): 26300 ng Equivalents [^14C]-compound of Formula I/g tissue
Concentration, Cornea ([2]; 0.5 hour after administration): 17150 ng Equivalents [^14C]-compound of Formula I/g tissue
Concentration, Iris-ciliary body ([2]; 0.5 hour after administration): 17550 ng Equivalents [^14C]-compound of Formula I/g tissue
Concentration, Lens ([2]; 0.5 hour after administration): 38.8 ng Equivalents [^14C]-compound of Formula I/g tissue
Concentration, Optic Nerve ([2]; 0.5 hour after administration): 796 ng Equivalents [^14C]-compound of Formula I/g tissue
Concentration, Retina and Choroid (with RPE) ([2]; 0.5 hour after administration): 510 ng Equivalents [^14C]-compound of Formula I/g tissue
Concentration, Sclera ([2]; 0.5 hour after administration): 2750 ng Equivalents [^14C]-compound of Formula I/g tissue
Concentration, Vitreous Humor ([2]; 0.5 hour after administration): 1330 ng Equivalents [^14C]-compound of Formula I/g tissue
Concentration, Aqueous humor ([2]; 0.5 hour after administration): 1770 ng Equivalents [^14C]-compound of Formula I/g tissue
Concentration, Conjunctiva (bulbar) ([2]; 4.0 hours after administration): 4480 ng Equivalents [^14C]-compound of Formula I/g tissue
Concentration, Conjunctiva (palpebral) ([2]; 4.0 hours after administration): 21830 ng Equivalents [^14C]-compound of Formula I/g tissue
Concentration, Cornea ([2]; 4.0 hours after administration): 1346 ng Equivalents [^14C]-compound of Formula I/g tissue
Concentration, Iris-ciliary body ([2]; 4.0 hours after administration): 500 ng Equivalents [^14C]-compound of Formula I/g tissue
Concentration, Lens ([2]; 4.0 hours after administration): 9.69 ng Equivalents [^14C]-compound of Formula I/g tissue
Concentration, Optic Nerve ([2]; 4.0 hours after administration): 0 ng Equivalents [^14C]-compound of Formula I/g tissue
Concentration, Retina and Choroid (with RPE) ([2]; 4.0 hours after administration): 46.7 ng Equivalents [^14C]-compound of Formula I/g tissue
Concentration, Sclera ([2]; 4.0 hours after administration): 387 ng Equivalents [^14C]-compound of Formula I/g tissue
Concentration, Vitreous Humor ([2]; 4.0 hours after administration): 183 ng Equivalents [^14C]-compound of Formula I/g tissue
Concentration, Aqueous humor ([2]; 4.0 hours after administration): 116 ng Equivalents [^14C]-compound of Formula I/g tissue

O=C(NC(Cc1cc(=O)[nH]c2ccccc12)C(=O)O)c1ccc(Cl)cc1 (stereo not drawn) [Rebamipide, reference compound]
EC50 ([3]; read-out: EC50 Cytokine Release GM-CSF): > 1000 µM
EC50 ([3]; read-out: EC50 Cytokine Release IFNγ): > 1000 µM
EC50 ([3]; read-out: EC50 Cytokine Release IL-1α): > 1000 µM
EC50 ([3]; read-out: EC50 Cytokine Release IL-1β): > 1000 µM
EC50 ([3]; read-out: EC50 Cytokine Release IL-2): > 1000 µM
EC50 ([3]; read-out: EC50 Cytokine Release IL-3): > 1000 µM
EC50 ([3]; read-out: EC50 Cytokine Release IL-4): > 1000 µM
EC50 ([3]; read-out: EC50 Cytokine Release IL-5): > 1000 µM
EC50 ([3]; read-out: EC50 Cytokine Release IL-6): > 1000 µM
EC50 ([3]; read-out: EC50 Cytokine Release IL-10): > 1000 µM
EC50 ([3]; read-out: EC50 Cytokine Release IL-12p40): > 1000 µM
EC50 ([3]; read-out: EC50 Cytokine Release IL-13): > 1000 µM
EC50 ([3]; read-out: EC50 Cytokine Release IP-10): > 1000 µM
EC50 ([3]; read-out: EC50 Cytokine Release MCP-1): > 1000 µM
EC50 ([3]; read-out: EC50 Cytokine Release MIP-1α): > 1000 µM
EC50 ([3]; read-out: EC50 Cytokine Release TNF-α): > 1000 µM
